{"source": "patent US20200255828A1", "about": "“METHODS AND COMPOSITIONS FOR ALTERING FUNCTION AND STRUCTURE OF CHROMATIN LOOPS AND/OR DOMAINS” (THE BROAD INSTITUTE, INC., priority 2017, published 2020)", "key": {"HCT-116 RAD21-mAC cells [1]": {"tested_on": "HCT-116 RAD21-mAC cells", "assay": "In situ Hi-C: loops and loop domains (HiCCUPS, APA), auxin treatment and withdrawal time course", "type": "cell-based, human", "text": "To examine loop domains, Applicants used in situ Hi-C(Rao et al., 2014), which combines DNA-DNA proximity ligation and high-throughput sequencing to create maps showing the frequency of physical contact between all pairs of loci across the genome. Loop domains are manifest in Hi-C maps as a bright “peak” pixel (indicating the link between the two loop anchors) at the corner of a bright square (indicating the presence of a contact domain).\nTo see if these changes were reversible, Applicants performed a time-course analysis in which untreated cells were exposed to auxin for six hours, after which auxin was withdrawn (FIG. 2B, FIG. 9B). Low resolution Hi-C was performed immediately before treatment, as well as at a series of time points during treatment (at 20, 40, 60, 240, and 360 minutes) and after withdrawal (at 20, 40, 60, 180, 360, 1080, and 1440 minutes). To assess whether the anchors of the loop domains seen in the pre-treatment data continued to be linked (that is, co-located in space) subsequently, Applicants used a method called Aggregate Peak Analysis (APA) (Durand et al., 2016b), which superimposes the signals from a set of peak pixels, thus allowing Applicants to observe an aggregate signal even in sparse datasets where individual signals cannot be resolved (FIG. 2B). The APA signal was initially strong, but was gone by 40 minutes after treatment, and remained absent throughout the rest of the treatment period (FIG. 2B, 9B). The disappearance of the loop-domain links closely mirrored the depletion of cohesin levels in the samples during the treatment period, as ascertained by measuring mClover fluorescence (FIG. 8).\nFor our time course experiments, cells were treated with 500 uM IAA and crosslinked with 1% formaldehyde directly in wells of a 6-well plate at various time points after treatment (20, 40, 60, 240, 360 minutes). For the auxin withdrawal experiments, after 6 hours treatment with 500 um IAA, the cells were trypsinized, washed twice in fresh media and replated in 6-well plates in fresh media. They were then crosslinked with 1% formaldehyde directly in the 6-well plates at various time points after auxin withdrawal (20, 40, 60, 180, 360, 1080, 1440 minutes).\nApplicants generated 69 in situ Hi-C libraries using the MboI restriction enzyme following the protocol described in (Rao et al., 2014) without modifications. In brief, the in situ Hi-C protocol involves crosslinking cells with formaldehyde, permeabilizing them with nuclei intact, digesting DNA with a suitable 4-cutter restriction enzyme, filling the 5′-overhangs while incorporating a biotinylated nucleotide, ligating the resulting blunt-end fragments, shearing the DNA, capturing the biotinylated ligation junctions with streptavidin beads, and analyzing the resulting fragments with paired-end sequencing.\nApplicants generated 7 libraries each for the main maps (untreated HCT-116 RAD21-mAC cells and HCT-116 RAD21-mAC cells treated for 6 hours with IAA) comprised of two sets of biological replicates each (three and four technical replicate libraries per biological replicate). In addition, Applicants generated four technical replicate libraries each for untreated and treated HCT-116 RAD21-mAC cells after cell synchronization and arrest. Applicants also generated an additional 5 libraries from untreated HCT-116 RAD21-mAC cells and 4 libraries from HCT-116 RAD21-mAC cells treated for 6 hours with IAA (two additional biological replicates each) that were not included in our main maps, but were used for analysis of higher-order contacts (see below). Applicants generated four libraries (two biological replicates) for each of our loop-resolution maps along the auxin withdrawal time course (20, 40, 60 and 180 mins after auxin withdrawal). Finally, Applicants generated two technical replicate libraries per time point of our auxin treatment and withdrawal time course. […]"}, "HCT-116 RAD21-mAC cells [2]": {"tested_on": "HCT-116 RAD21-mAC cells", "assay": "3D-APA of higher-order Hi-C contacts between cohesin-independent loop anchors", "type": "cell-based, human", "conditions": "auxin-treated data, 131 intrachromosomal trios; none in untreated", "text": "To probe this question, Applicants examined concatemers—that is, Hi-C reads which bring together 3 or more loci, and indicate that the loci in question were simultaneously co-located in a particular cell during the Hi-C experiment. Applicants identified 57 million unique “triples,” which bring together 3 loci; 32 million unique quadruples, and 130 thousand quintuples (FIG. 5B, see Methods). Instead of a 2-dimensional heatmap, concatemers are naturally represented as an n-dimensional matrix, or tensor, showing the collision frequency (i.e. the frequency of simultaneous physical contact) between any set of n loci in the genome (FIG. 5C). Hubs involving n loci manifest in the n-dimensional contact tensor as peaks in collision frequency with respect to the local n-dimensional neighborhood. […]\nAnalysis of higher order contacts. […] The Juicer pipeline (Durand, et al, 2016b) separately outputs abnormal chimeric read pairs (i.e. read pairs that map to more than 2 loci). Applicants combined all of the data from untreated RAD21-mAC cells and all our data from treated RAD21-mAC cells (unsynchronized and synchronized/arrested), parsed the chimeric abnormal reads and deduped them (using the same deduping procedure used in Juicer, only applied to three, four or five positions, rather than just two), retaining unique reads that mapped to three or more positions with MAPQ>=10. […]"}}, "note": "Values joined by “and” are separate entries in the source; they are usually repeats but may differ in a detail not shown here. Identical values can stand only once.", "data": [{"compound": "O=C(O)Cc1c[nH]c2ccccc12", "note": "[auxin, indole-3-acetic acid]", "values": [{"measurement": "APA score for all loops after auxin treatment", "setting": "HCT-116 RAD21-mAC cells [1]; 10 kb resolution, >300 kb, untreated 2.09", "result": 0.78}, {"measurement": "APA score for loop domains after auxin treatment", "setting": "HCT-116 RAD21-mAC cells [1]; 10 kb resolution, >300 kb, untreated 2.10", "result": 0.78}, {"measurement": "number of loop domains found after auxin treatment", "setting": "HCT-116 RAD21-mAC cells [1]; 2,140 in untreated cells, all 9 false positives", "result": 9}, {"measurement": "time after auxin withdrawal by which APA signal largely recovered", "setting": "HCT-116 RAD21-mAC cells [1]; after 6 hours auxin", "result": "≤ 1", "unit": "h"}, {"measurement": "time after auxin withdrawal with strong loop domain signal", "setting": "HCT-116 RAD21-mAC cells [1]; after 6 hours auxin", "result": "≤ 60", "unit": "min"}, {"measurement": "number of loops annotated in auxin-treated cells", "setting": "HCT-116 RAD21-mAC cells [1]; default HiCCUPS 5, 10, 25 kb, 3,170 in untreated", "result": 81}, {"measurement": "loops lost after auxin treatment", "setting": "HCT-116 RAD21-mAC cells [1]; default HiCCUPS parameters", "result": "> 97% and ~98%"}, {"measurement": "time after auxin withdrawal at which reformation of fast loop domains is apparent", "setting": "HCT-116 RAD21-mAC cells [1]; fast loop domains", "result": "20 to 40", "unit": "min"}, {"measurement": "time after auxin withdrawal until reformation of slow loop domains is seen", "setting": "HCT-116 RAD21-mAC cells [1]; slow loop domains", "result": 3, "unit": "h"}, {"measurement": "collisions in the center voxel of the 3D APA cube (three cohesin-independent loop anchors)", "setting": "HCT-116 RAD21-mAC cells [2]", "result": 11}]}]}
